Experimental data: patent publication US8598078B2, “Condensed anthran I lami de derivatives as insecticides” (Syngenta Crop Protection, LLC, priority 2007, dated 2013)
Read-outs that look alike come from different tables or passages of the source.

Columns and labels:
[1] = tested on: Spodoptera littoralis (Egyptian cotton leafworm); assay: Activity against Spodoptera littoralis (larvicide, feeding/residual contact activity, preventive), cotton leaf discs; assay type: in vivo; conditions: foliar, 72 h, read-out: activity (mortality, repellent effect, feeding behaviour, growth regulation)
Source text: Activity Against Spodoptera littoralis (Egyptian Cotton Leafworm)
(§1) (Larvicide, Feeding/Residual Contact Activity, Preventive)
Cotton leaf discs were placed on agar in a 24-well microtiter plate and sprayed with test solutions. After drying, the leaf discs were infested with 5 L1 larvae. The samples were checked for mortality, repellent effect, feeding behaviour, and growth regulation 3 days after treatment.

[2] = tested on: Thrips tabaci (onion thrips); assay: Activity against Thrips tabaci (mixed population, feeding/residual contact activity, preventive), sunflower leaf discs; assay type: in vivo; conditions: foliar, 144 h, read-out: activity (mortality and special effects)
Description: Activity Against Thrips tabaci (Onion Thrips)
(§2) (Mixed Population, Feeding/Residual Contact Activity, Preventive)
(§3) Sunflower leaf discs were placed on agar in a 24-well microtiter plate and sprayed with test solutions. After drying, the leaf discs were infested with a thrips population of mixed ages. After an incubation period of 6 days, samples were checked for mortality and special effects (e.g. phytotoxicity).

[3] = tested on: Nilaparvata lugens (brown rice planthopper); assay: Activity against Nilaparvata lugens (larvicide, feeding/contact), rice seedlings; assay type: in vivo; conditions: read-out: activity (mortality, growth regulation, effects on the F1 generation)
Description: Activity Against Nilaparvata lugens (Brown Rice Planthopper)
(Larvicide, Feeding/Contact)
Rice seedlings were treated with the diluted test solutions in a spray chamber. After drying, they were infested with 20 N3 nymphs (2 replicates). 6-12 days after the treatment samples were checked for mortality, growth regulation, and effects on the F, generation.

[4] = tested on: Myzus persicae (green peach aphid); assay: Activity against Myzus persicae (mixed population, feeding/residual contact activity, preventive), sunflower leaf discs; assay type: in vivo; conditions: foliar, 144 h, read-out: activity (mortality and special effects)
Description: (§4) Activity Against Myzus persicae (Green Peach Aphid)
as §2
as §3, with “an aphid” for “a thrips”

[5] = tested on: Plutella xylostella (diamond back moth); assay: Plutella xylostella (larvicide, feeding/residual contact activity, preventive), artificial diet MTP; assay type: in vivo; conditions: 120 h, read-out: activity (larval mortality, antifeedant, growth regulation)
Description: Plutella xylostella (Diamond Back Moth)
as §1
24-well microtiter plate (MTP) with artificial diet was treated with test solutions by pipetting. After drying, the MTP's were infested with larvae (L2) (10-15 per well). After an incubation period of 5 days, samples were checked for larval mortality, antifeedant and growth regulation.

[6] = tested on: Heliothis virescens (tobacco budworm); assay: Activity against Heliothis virescens (ovo-larvicide, feeding/contact activity, curative), eggs on artificial diet; assay type: in vivo; conditions: read-out: activity (egg mortality, larval mortality, growth regulation)
Description: Activity Against Heliothis virescens (Tobacco Budworm)
(Ovo-Larvicide, Feeding/Contact Activity, Curative)
Eggs (0-24 h old) were placed in 24-well microtiter plate on artificial diet and treated with test solutions by pipetting. After an incubation period of 4 days, samples were checked for egg mortality, larval mortality, and growth regulation.

[7] = tested on: Myzus persicae (green peach aphid); assay: Activity against Myzus persicae (mixed population, systemic/feeding activity, curative), pea seedling roots in test solution; assay type: in vivo; conditions: 144 h, read-out: activity (mortality and special effects on the plant)
Source text: as §4
(Mixed Population, Systemic/Feeding Activity, Curative)
Roots of pea seedlings, infested with an aphid population of mixed ages, were placed directly in the test solutions. 6 days after introduction, samples were checked for mortality and special effects on the plant.

[8] = tested on: Diabrotica balteata (corn root worm); assay: Diabrotica balteata (larvicide, feeding/residual contact activity, preventive), artificial diet MTP; assay type: in vivo; conditions: 120 h, read-out: activity (larval mortality, antifeedant, growth regulation)
Description: Diabrotica balteata (Corn Root Worm)
as §1
24-well microtiter plate (MTP) with artificial diet was treated with test solutions by pipetting. After drying, the MTP's were infested with larvae (L2) (6-10 per well). After an incubation period of 5 days, samples were checked for larval mortality, antifeedant and growth regulation.

[9] = 400 ppm, L1 larvae on sprayed cotton leaf discs, 3 days after treatment
[10] = 400 ppm, N3 nymphs on sprayed rice seedlings, 6-12 days after treatment
[11] = 400 ppm, mixed-age aphids on sprayed sunflower leaf discs, 6 days incubation
[12] = 400 ppm, L2 larvae on treated artificial diet, 5 days incubation
[13] = 400 ppm, eggs 0-24 h old on artificial diet, 4 days incubation

SMILES | melting point | mortality at 400 ppm [1] [%] | mortality at 400 ppm [3] [%] | mortality at 400 ppm [4] [%] | mortality at 400 ppm [5] [%] | mortality at 400 ppm [6] [%] | mortality at 400 ppm [7] [%] | mortality at 400 ppm [8] [%] | also measured
COCn1ncc2cc(Cl)c(NC(=O)c3cc(C(F)(F)F)nn3-c3ncccc3Cl)c(C(=O)NC(C)C)c21 [P.2] | – | > 80 | > 80 | > 80 | > 80 | > 80 | > 80 | > 80 | mortality at 400 ppm [2]: > 80%
COCn1ncc2cc(C)c(NC(=O)c3cc(OC)nn3-c3ncccc3Cl)c(C(=O)NC(C)C)c21 [P.19] | – | > 80 | > 80 | > 80 | > 80 | > 80 | > 80 | > 80 | mortality at 400 ppm [2]: > 80%
CCCCCCCCCCCCCCCCOCCOCCOC(=O)n1cc2cc(C)c(NC(=O)c3cc(OC)nn3-c3ncccc3Cl)c(C(=O)NC(C)C)c2n1 [P.23] | – | – | – | – | – | – | – | – | mortality at 400 ppm [1, 9]: > 80%; mortality at 400 ppm ([2]; 400 ppm, mixed-age thrips on sprayed sunflower leaf discs, 6 days incubation): > 80%; mortality at 400 ppm [3, 10]: > 80%; mortality at 400 ppm [4, 11]: > 80%; mortality at 400 ppm [5, 12]: > 80%; mortality at 400 ppm [6, 13]: > 80%; mortality at 400 ppm [8, 12]: > 80%
COc1cc(C(=O)Nc2c(C)cc3cn(C(=O)C(C)(C)C)nc3c2C(=O)NC(C)C)n(-c2ncccc2Cl)n1 [P.26] | – | > 80 | > 80 | > 80 | > 80 | > 80 | > 80 | > 80 | –
CCCCCCCCCCCCOCCOC(=O)n1cc2cc(C)c(NC(=O)c3cc(OC)nn3-c3ncccc3Cl)c(C(=O)NC(C)C)c2n1 [P.29] | – | – | – | – | – | – | – | – | mortality at 400 ppm [1, 9]: > 80%; mortality at 400 ppm [3, 10]: > 80%; mortality at 400 ppm [4, 11]: > 80%; mortality at 400 ppm [5, 12]: > 80%; mortality at 400 ppm [6, 13]: > 80%; mortality at 400 ppm ([7]; 400 ppm, systemic, roots of infested pea seedlings in test solution, 6 days): > 80%; mortality at 400 ppm [8, 12]: > 80%
CCCC(C)(C)C(=O)n1cc2cc(C)c(NC(=O)c3cc(OC)nn3-c3ncccc3Cl)c(C(=O)NC(C)C)c2n1 [P.31] | – | > 80 | > 80 | > 80 | > 80 | > 80 | > 80 | > 80 | mortality at 400 ppm [2]: > 80%

More lines, main results first:

melting point | SMILES | mortality at 400 ppm [1] [%] | mortality at 400 ppm [3] [%] | mortality at 400 ppm [4] [%] | mortality at 400 ppm [5] [%] | mortality at 400 ppm [6] [%] | mortality at 400 ppm [7] [%] | mortality at 400 ppm [8] [%] | also measured
161 to 162 °C | COc1cc(C(=O)Nc2c(C)cc3cn(C(=O)OC(C)(C)C)nc3c2C(=O)NC(C)C)n(-c2ncccc2Cl)n1 | – | – | – | – | – | – | – | –
156 to 160 °C | COc1cc(C(=O)Nc2c(C)cc3cn(Cc4ccccn4)nc3c2C(=O)NC(C)C)n(-c2ncccc2Cl)n1 | – | – | – | – | – | – | – | –
66 to 70 °C | CCCCCCCCN(C)C(=O)n1cc2cc(C)c(NC(=O)c3cc(OC)nn3-c3ncccc3Cl)c(C(=O)NC(C)C)c2n1 | – | – | – | – | – | – | – | –
216 °C (dec.) | COc1cc(C(=O)Nc2c(C)cc3cn(-c4nc(Cl)nc(Cl)n4)nc3c2C(=O)NC(C)C)n(-c2ncccc2Cl)n1 | – | – | – | – | – | – | – | –
226 to 230 °C | COc1cc(C(=O)Nc2c(C)cc3cn(-c4nc(OC)nc(OC)n4)nc3c2C(=O)NC(C)C)n(-c2ncccc2Cl)n1 | – | – | – | – | – | – | – | –
85 to 86 °C | CCOC(=O)CSC(=O)n1cc2cc(C)c(NC(=O)c3cc(OC)nn3-c3ncccc3Cl)c(C(=O)NC(C)C)c2n1 | – | – | – | – | – | – | – | –
